# Patent US10570117B2, “Phenylimidazole compound” (Otsuka Pharmaceutical Factory, Inc., priority 2015, dated 2020)
# Read-outs that look alike come from different tables or passages of the source.
# Assays:
# [1] = Solubility in gastric juice or intestinal juice model fluid (precipitation method using DMSO); format: physicochemical; settings: room temperature
# Method in brief: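 Dissolved amount (μg/mL) quantified by UV of filtrate versus pre-made calibration curves. Precipitation approach: DMSO solutions spiked into pH 1.2 (JP 1st fluid) or pH 6.8 (JP 2nd fluid) medium, shaken at room temperature for 24 h before insolubles were filtered off.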
# [2] = system: lipoprotein lipase (LPL) gene; assay: LPL mRNA elevating action (RT-PCR quantification of LPL mRNA in C2Cl2 cells); format: cell-based, mouse; settings: Mus musculus, 24 h, compound 10 μM, ratio relative to the amount of LPL mRNA in cells with DMSO only, read-out: Rate of increase in LPL mRNA
# Method in brief: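 Read-out is LPL mRNA relative to vehicle (DMSO = 1), measured by reverse transcription and 20-cycle real-time PCR. Cells were the mouse striated-muscle line C2Cl2, treated 24 h with 10 μM compound in DMEM containing 10% FBS.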
# [3] = pH 1.2, simulated gastric fluid, kinetic from dmso stock, 1st fluid for Disintegration Test of Japanese Pharmacopoeia (pH: 1.2), read-out: Solubility (μg/mL) 1st fluid
# [4] = pH 6.8, kinetic from dmso stock, 2nd fluid for Disintegration Test of Japanese Pharmacopoeia (pH: 6.8), read-out: Solubility (μg/mL) 2nd fluid
Structure (SMILES),"solubility at 24 h [1, 3]","solubility at 24 h [1, 4]",melting point,fold induction at 10 µM [2]
COc1cc(OCc2ccc(C(F)(F)F)nc2)ccc1-c1nc(-c2ccc(F)cn2)[nH]c1C [Example 23],13.1 µg/mL,< 1.6 µg/mL,140 to 142 °C,2.94
COc1cc(OCc2ccc(C(F)(F)F)cn2)ccc1-c1nc(-c2ccc(F)cn2)[nH]c1C [Example 25],83.1 µg/mL,1 µg/mL,180 to 182 °C,2.68
COc1cc(OCc2ccc(C(F)(F)F)nc2)ccc1-c1nc(-c2ccc(Cl)cn2)[nH]c1C [Example 27],5.9 µg/mL,0.5 µg/mL,157 to 159 °C,2.45
COc1cc(OCc2ccc(C(F)(F)F)cc2)ccc1-c1nc(-c2ccc(Cl)cn2)[nH]c1C [Example 34],17 µg/mL,< 0.3 µg/mL,170 to 173 °C,2.22
COc1cc(OCc2ccc(C(F)(F)F)cn2)ccc1-c1c[nH]c(-c2ccc(S(C)(=O)=O)nc2)n1 [Example 38],60.5 µg/mL,0.9 µg/mL,213 to 214 °C,2.25
COc1cc(OCc2ccc(C(F)(F)F)cn2)ccc1-c1c[nH]c(-c2cccc(N3CCCC3)n2)n1 [Example 40],6.9 µg/mL,2.8 µg/mL,100 to 108 °C,0.93
COc1cc(OCc2ccc(C(F)(F)F)cn2)ccc1-c1c[nH]c(-c2ccc(Cl)cn2)n1 [Example 42],8.6 µg/mL,2.3 µg/mL,147 to 150 °C,2.27
COc1cc(OCc2ccc(S(=O)(=O)OC)cn2)ccc1-c1c[nH]c(-c2ccc(Cl)nc2)n1 [Example 44],11.9 µg/mL,0.7 µg/mL,232 to 235 °C (dec.),1.14
COc1cc(-c2c[nH]c(-c3ccc(F)nc3)n2)cc(OC)c1OCc1ccc(C(F)(F)F)cn1 [Example 46],22.9 µg/mL,< 9.1 µg/mL,107 to 110 °C,2.49
COc1cc(-c2c[nH]c(-c3ccc(Cl)nc3)n2)ccc1OCc1cccc(F)n1 [Example 47],5.1 µg/mL,0.3 µg/mL,185 to 187 °C,3.26
COc1cc(OCc2cccc(C#N)n2)ccc1-c1c[nH]c(C2CCCCC2)n1 [Example 55],> 78 µg/mL,2.3 µg/mL,182 to 187 °C,4.24
COc1cc(-c2c[nH]c(-c3ccc(Cl)nc3)n2)c(OC)cc1OCc1ccc(C(F)(F)F)cn1 [Example 56],4.8 µg/mL,0.8 µg/mL,204 to 206 °C,2.57
COc1c(OCc2ccc(C(F)(F)F)cn2)ccc(-c2c[nH]c(C3CCC(F)(F)CC3)n2)c1OC [Example 57],> 99 µg/mL,0.8 µg/mL,155 to 157 °C,3.72
COc1cc(OCc2ccc(C(F)(F)F)cn2)ccc1-c1c[nH]c(C2CCC(C)CC2)n1 (stereo not drawn) [Example 65],77.3 µg/mL,1.3 µg/mL,137 to 142 °C,2.89
COc1cc(-c2c[nH]c(C3CCC3)n2)ccc1OCc1ccc(C(F)(F)F)cn1 [Example 73],> 108 µg/mL,5.3 µg/mL,210 to 213 °C (dec.),4.07
COc1cc(OCc2ccc(C(F)(F)F)cn2)ccc1-c1c[nH]c(C2CCCCC2)n1 [Example 77],8.7 µg/mL,1.3 µg/mL,226 to 228 °C,3.11
COc1ccc(-c2nc(-c3ccc(OCc4ccc(C(F)(F)F)cn4)cc3OC)c[nH]2)cn1 [Example 79],10.6 µg/mL,1.2 µg/mL,187 to 189 °C,1.42
"COc1cc(O)ccc1-c1c[nH]c(-c2ccc(F)nc2)n1 [Example 109, 4-[2-(6-fluoropyridin-3-yl)-1H-imidazol-5-yl]-3-methoxyphenol]",> 57 µg/mL,40 µg/mL,249 to 251 °C (dec.),1.76
COc1cc(OCc2ncc(C)cc2C)ccc1-c1c[nH]c(-c2ccc(F)nc2)n1 [Example 118],80.2 µg/mL,2.1 µg/mL,219 to 223 °C (dec.),2.91
COc1cc(OCc2cnc(C)cn2)ccc1-c1c[nH]c(-c2ccc(F)nc2)n1 [Example 122],71.8 µg/mL,2.9 µg/mL,167 to 170 °C,1.7

# The next lines start with results.
"solubility at 24 h [1, 3]","solubility at 24 h [1, 4]",melting point,Structure (SMILES),fold induction at 10 µM [2]
7.5 µg/mL,1.6 µg/mL,199 to 201 °C,COc1cc(OCc2cnc(C)cn2)ccc1-c1c[nH]c(-c2ccc(Cl)nc2)n1 [Example 22],2.22
53.6 µg/mL,1.8 µg/mL,169 to 171 °C,COc1cc(OCc2ccc(C(F)(F)F)nc2)ccc1-c1nc(-c2ccc(F)nc2)[nH]c1C [Example 24],2.94
> 99 µg/mL,5.2 µg/mL,141 to 150 °C,COc1cc(OCc2ccc(C(F)(F)F)cn2)ccc1-c1nc(-c2ccc(F)nc2)[nH]c1C [Example 39],2.7
16.2 µg/mL,3.4 µg/mL,185 to 187 °C,COc1cc(OCc2ncccc2C(F)(F)F)ccc1-c1c[nH]c(-c2ccc(Cl)nc2)n1 [Example 43],3.48
27.8 µg/mL,< 0.3 µg/mL,221 to 224 °C,COc1cc(OCc2ccncn2)ccc1-c1c[nH]c(-c2ccc(Cl)nc2)n1 [Example 45],1.09
8.7 µg/mL,0.9 µg/mL,196 to 199 °C,COc1cc(OCc2ccc(C(F)(F)F)nc2)ccc1-c1nc(-c2ccc(Cl)nc2)[nH]c1C [Example 49],3.46
104 µg/mL,2.3 µg/mL,129 to 132 °C,COc1cc(OCc2ccc(C(F)(F)F)cn2)ccc1-c1nc(-c2ccc(Cl)nc2)[nH]c1C [Example 68],2.45
84.9 µg/mL,0.4 µg/mL,203 to 205 °C,COc1cc(OCc2ccc(C(F)(F)F)cn2)ccc1-c1c[nH]c(-c2ccc(C)nc2)n1 [Example 80],2.01
85.4 µg/mL,1.8 µg/mL,240 to 242 °C,COc1cc(OCc2ccc(C(F)(F)F)cn2)ccc1-c1c[nH]c(-c2cccnc2)n1 [Example 89],1.69
15 µg/mL,< 0.3 µg/mL,220 to 228 °C,COc1cc(OCc2ccncc2C(F)(F)F)ccc1-c1cnc(-c2ccc(Cl)nc2)[nH]1 [Example 100],3.05
36 µg/mL,< 0.3 µg/mL,190 to 192 °C,COc1cc(OCc2ncc(F)cc2F)ccc1-c1cnc(-c2ccc(Cl)nc2)[nH]1 [Example 103],2.36
20.6 µg/mL,0.7 µg/mL,211 to 218 °C,COc1cc(OCc2ncc(Cl)cc2F)ccc1-c1cnc(-c2ccc(Cl)nc2)[nH]1 [Example 104],2.27
31.2 µg/mL,6.3 µg/mL,191 to 203 °C,COc1cc(OCc2cncc(C(F)(F)F)c2)ccc1-c1cnc(-c2ccc(Cl)nc2)[nH]1 [Example 106],2.66
11.2 µg/mL,9.6 µg/mL,174 to 223 °C,COc1cc(OCc2ccnc(C(F)(F)F)c2)ccc1-c1cnc(-c2ccc(Cl)nc2)[nH]1 [Example 107],2.68
4.1 µg/mL,< 0.3 µg/mL,231 to 233 °C,COc1cc(OCc2cccnc2C(F)(F)F)ccc1-c1cnc(-c2ccc(Cl)nc2)[nH]1 [Example 108],3.03
12 µg/mL,2.1 µg/mL,187 to 190 °C,COc1cc(OCc2cccnc2C(F)(F)F)ccc1-c1cnc(-c2ccc(F)nc2)[nH]1 [Example 112],2.39
> 89 µg/mL,1.8 µg/mL,201 to 202 °C,COc1cc(OCc2ncccc2C(F)(F)F)ccc1-c1c[nH]c(-c2ccc(F)nc2)n1 [Example 121],3.38
18.7 µg/mL,< 1.6 µg/mL,141 to 144 °C,COc1cc(OCc2ccc(C(F)(F)F)cn2)ccc1-c1c[nH]c(-c2ccc(F)nc2)n1 [Example 124],2.28
87.4 µg/mL,< 0.3 µg/mL,178 to 180 °C,COc1cc(OCc2cnccc2C(F)(F)F)ccc1-c1cnc(-c2ccc(F)nc2)[nH]1 [Example 131],3.66
